According to patent US8367695B2, “Condensed tetrahydroquinoline derivative and use thereof for medical purposes” (Mitsubishi Tanabe Pharma Corporation, priority 2007, dated 2013):
Read-outs that look alike come from different tables or passages of the source.

Target: T1, human recombinant mineralocorticoid receptor (MR) (Homo sapiens, UniProt P08235)
T1 construct: made in house; host or cells: insect cell Sf9 (baculovirus)
T1 sequence (P08235 1-984): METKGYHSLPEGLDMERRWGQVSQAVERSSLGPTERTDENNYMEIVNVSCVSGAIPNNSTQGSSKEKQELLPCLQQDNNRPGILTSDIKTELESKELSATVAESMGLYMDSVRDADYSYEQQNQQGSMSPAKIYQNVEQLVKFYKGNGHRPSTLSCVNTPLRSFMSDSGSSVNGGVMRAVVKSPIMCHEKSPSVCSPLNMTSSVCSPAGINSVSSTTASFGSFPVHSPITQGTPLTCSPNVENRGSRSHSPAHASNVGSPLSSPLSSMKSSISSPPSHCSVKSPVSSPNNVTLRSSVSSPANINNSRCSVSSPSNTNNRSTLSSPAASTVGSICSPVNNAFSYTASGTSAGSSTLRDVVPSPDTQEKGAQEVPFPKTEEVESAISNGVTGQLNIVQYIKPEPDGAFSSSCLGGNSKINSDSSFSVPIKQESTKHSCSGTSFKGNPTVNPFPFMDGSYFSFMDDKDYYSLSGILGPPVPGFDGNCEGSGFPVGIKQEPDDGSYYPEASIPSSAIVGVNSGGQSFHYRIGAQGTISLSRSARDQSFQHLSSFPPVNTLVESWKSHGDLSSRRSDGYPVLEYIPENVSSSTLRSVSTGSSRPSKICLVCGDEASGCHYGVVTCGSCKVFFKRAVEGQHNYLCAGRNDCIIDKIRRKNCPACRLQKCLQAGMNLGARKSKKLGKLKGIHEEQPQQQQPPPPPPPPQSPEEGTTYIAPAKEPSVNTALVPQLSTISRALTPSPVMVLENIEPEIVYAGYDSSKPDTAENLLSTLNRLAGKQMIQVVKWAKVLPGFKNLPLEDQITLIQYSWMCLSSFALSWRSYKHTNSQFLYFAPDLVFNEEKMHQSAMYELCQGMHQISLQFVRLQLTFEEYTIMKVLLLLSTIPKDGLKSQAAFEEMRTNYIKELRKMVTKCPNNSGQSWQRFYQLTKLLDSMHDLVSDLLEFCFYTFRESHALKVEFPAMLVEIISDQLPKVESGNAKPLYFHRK
Test: Radioactive ligand binding test, MR cytosol, [3H]-Ald
Source text: Radioactive Ligand Binding Test Using Cytosols of Human Glucocorticoids Receptor, Progesterone Receptor and Mineralocorticoid Receptor
The procedures described in Neuroimmunomodulation (1994, 1, p. 66-73) and Invest. Opthalmol. Vis. Sci. (1996, 37, p. 805-813) were modified and used. In brief, cytosol preparations of human recombinant glucocorticoids receptor (GR) and human recombinant progesterone receptor-B (PRB) were purchased from Invitrogen (Carlsbad, Calif.), and a cytosol preparation of human recombinant mineralocorticoid receptor (MR) was prepared by our company (Yokohama, JP). MR cDNA was cloned into a baculovirus expression vector and expressed in insect cell Sf9. The procedures described in J. Biol. Chem. (1991, 266, p. 18072-18081), Proc. Natl. Acad. Sci. USA (1991, 88, p. 10681-10685) and Bac-to-Bac (registered trade mark) Baculovirus Expression Systems technical manual (Invitrogen) were partly modified and used as the procedures for MR gene cloning up to preparation of recombinant receptor cytosol. [^3H]-Dexamethasone (Dex, specific activity 91.0 Ci/mmol) was purchased from GE Healthcare (Buckinghamshire, UK), and [^3H]-progesterone (Prog, specific activity 103 Ci/mmol) and [3H]-aldosterone (Ald, specific activity 87.9 Ci/mmol) were each purchased from PerkinElmer (Boston, Mass.). Polypropylene round-bottomed 96 well plate was obtained from ABgene (Epsom, UK). Dimethyl Sulfoxide (DMSO) and hydrochloric acid were obtained from Kanto Chemical (TOKYO, JP). Trizma Base (Tris), Bovine Serum Albumin (BSA) and Sodium tungstate dihydrate were obtained from Sigma Chemicals (St. Louis, Mo.). Dithiothreitol (DTT) and Dextran 70 were obtained from GE Healthcare (Buckinghamshire, UK). Glycerol was obtained from Junsei Chemical (TOKYO, JP). Norit® “SX-II” was obtained from Wako Pure Chemical Industries, Ltd. (Osaka, JP). MeltiLex™, A, Printed Filtermat A and Sample Bag were obtained from PerkinElmer (Boston, Mass.).
As a buffer for GR binding assay, 25 mM Tris-HCl (4° C., pH 7.4)/1 mM EDTA·2Na/1 mM DTT/0.1% BSA was prepared and used. As buffers for PRB and MR binding assay, 10 mM Tris-HCl (4° C., pH 7.4)/1 mM DTT/0.1% BSA/10% glycerol and 20 mM Tris-HCl (4° C., pH 7.4)/1 mM EDTA·2Na/10% glycerol/20 mM sodium tungstate were respectively prepared and used. As dextran-coated charcoal (DCC) for B/F separation, 0.75% Dextran 70/0.75% Norit® SX-II/10 mM Tris-HCl (4° C., pH 7.4) was prepared and used.
Compound storage solutions (5-20 mM) were prepared using DMSO. The storage solutions were diluted with DMSO to 0.1 mM (for GR) and 0.3 mM (for PRB and MR), and further diluted 20-fold with distilled water to give solutions. Then, the preparations were diluted to each concentration with 5% DMSO solution. 1% DMSO was present at the time of the binding assay.
In the case of MR binding assay, [^3H]-Ald (about 4 nM), MR cytosol (about 1 mg/mL concentration of total protein), a test compound and a binding buffer were mixed in a total volume of 50 μL, and the mixture was stood at 4° C. for 30 min or longer. A specific binding was defined to be the difference in the [^3H]-Ald binding between the presence and the absence of 1 μM unlabeled Ald.
After the reaction, 50 μL of DCC was added to each well and blended. Thereafter, the mixture was stood at 4° C. for 10 min. The plate was applied to high-speed cooling centrifuge under the conditions of 4° C., 2000 rpm, 5 min to perform B/F separation. A given amount of the supernatant was recovered, which was spotted on Filtermat A of 96 well format (PerkinElmer) and rapidly dried at a high temperature. Then, solid scintillator MeltiLex A (PerkinElmer) was melted on Filtermat A. The mixture was placed in a Sample Bag (PerkinElmer), and the level of radioactivity was measured by plate reader 1450 Micro Beta TRILUX (PerkinElmer).
Measurement of Inhibition Constant (Ki)

Structure (SMILES) | Ki | Ki ([3H]-Ald about 4 nM, MR cytosol (Sf9), 4° C., Cheng-Prusoff, Kd about 2.0 nM, read-out: MR (Ki: nM))
Cc1noc(C)c1-c1cc2c(c3c1CCC3)NC(C)(C)C(=O)C2(C)C [Example 2, 6-(3,5-dimethylisoxazol-4-yl)-2,2,4,4-tetramethyl-2,3,4,7,8,9-hexahydro-1H-cyclopenta[h]quinolin-3-one] | > 1000 nM | 
CC1(C)Nc2c(cc(-c3ccnc4cc[nH]c34)c3c2CCC3)C(C)(C)C1=O [Example 13, 2,2,4,4-tetramethyl-6-(1H-pyrrolo[3,2-b]pyridin-7-yl)-2,3,4,7,8,9-hexahydro-1H-cyclopenta[h]quinolin-3-one] | > 1000 nM | 
CC1(C)Nc2c(cc(-c3cccc4nccn34)c3c2CCC3)C(C)(C)C1=O [Example 14, 6-(imidazo[1,2-a]pyridin-5-yl)-2,2,4,4-tetramethyl-2,3,4,7,8,9-hexahydro-1H-cyclopenta[h]quinolin-3-one] | > 1000 nM | 
CC1(C)Nc2c(cc(-c3cccc4nncn34)c3c2CCC3)C(C)(C)C1=O [Example 17, 2,2,4,4-tetramethyl-6-([1,2,4]triazolo[4,3-a]pyridin-5-yl)-2,3,4,7,8,9-hexahydro-1H-cyclopenta[h]quinolin-3-one] | > 1000 nM | 
CC1(C)Nc2c(cc(-c3cccc4ncccc34)c3c2CCC3)C(C)(C)C1=O [Example 20, 2,2,4,4-tetramethyl-6-(quinolin-5-yl)-2,3,4,7,8,9-hexahydro-1H-cyclopenta[h]quinolin-3-one] | > 1000 nM | 
CC1(C)Nc2c(cc(-c3ccnc4ncccc34)c3c2CCC3)C(C)(C)C1=O [Example 21, 2,2,4,4-tetramethyl-6-([1,8]naphthyridin-4-yl)-2,3,4,7,8,9-hexahydro-1H-cyclopenta[h]quinolin-3-one] | > 1000 nM | 
C=C1C(C)(C)Nc2c(cc(-c3c(C)ncn3C)c3c2CCC3)C1(C)C [Example 29, 6-(3,5-dimethyl-3H-imidazol-4-yl)-2,2,4,4-tetramethyl-3-methylene-2,3,4,7,8,9-hexahydro-1H-cyclopenta[h]quinoline] | > 1000 nM | 
C=CCC1(C)C(=O)C(C)(C)Nc2c1cc(-c1ccc(O)cc1C)c1c2CCC1 (centres unmarked) [Example 50, 4-allyl-6-(4-hydroxy-2-methylphenyl)-2,2,4-trimethyl-2,3,4,7,8,9-hexahydro-1H-cyclopenta[h]quinolin-3-one] | > 1000 nM | 
C=CCC1(C)C(=O)C(C)(C)Nc2c1cc(-c1c(C)noc1C)c1c2CCC1 (centres unmarked) [Example 51, 4-allyl-6-(3,5-dimethylisoxazol-4-yl)-2,2,4-trimethyl-2,3,4,7,8,9-hexahydro-1H-cyclopenta[h]quinolin-3-one] | > 1000 nM | 
C=CCC1(C)C(=O)C(C)(C)Nc2c1cc(-c1cccc3nccn13)c1c2CCC1 (centres unmarked) [Example 57, 4-allyl-6-(imidazo[1,2-a]pyridin-5-yl)-2,2,4-trimethyl-2,3,4,7,8,9-hexahydro-1H-cyclopenta[h]quinolin-3-one] | > 1000 nM | 
CCC1(C)C(=O)C(C)(C)Nc2c1cc(-c1cccc3nccn13)c1c2CCC1 (centres unmarked) [Example 58, 4-ethyl-6-(imidazo[1,2-s]pyridin-5-yl)-2,2,4-trimethyl-2,3,4,7,8,9-hexahydro-1H-cyclopenta[h]quinolin-3-one] |  | > 1000 nM
CC#CCC1(C)C(=O)C(C)(C)Nc2c1cc(-c1cccc3nccn13)c1c2CCC1 (centres unmarked) [Example 63, 4-(2-butynyl)-6-(imidazo[1,2-a]pyridin-5-yl)-2,2,4-trimethyl-2,3,4,7,8,9-hexahydro-1H-cyclopenta[h]quinolin-3-one] | > 1000 nM | 
Cc1noc(C)c1-c1cc2c(c3c1OCO3)NC(C)(C)C(=O)C2(C)C [Example 69, 4-(3,5-dimethylisoxazol-4-yl)-6,6,8,8-tetramethyl-6,7,8,9-tetrahydro-[1,3]dioxolo[4,5-h]quinolin-7-one] | > 1000 nM | 
CC1(C)Nc2c(cc(-c3cccc4nccn34)c3c2OCO3)C(C)(C)C1=O [Example 71, 4-(imidazo[1,2-a]pyridin-5-yl)-6,6,8,8-tetramethyl-6,7,8,9-tetrahydro-[1,3]dioxolo[4,5-h]quinolin-7-one] | > 1000 nM | 
CC1(C)Nc2c(cc(-c3cccc4ncccc34)c3c2OCO3)C(C)(C)C1=O [Example 72, 6,6,8,8-tetramethyl-4-(quinolin-5-yl)-6,7,8,9-tetrahydro-[1,3]dioxolo[4,5-h]quinolin-7-one] | > 1000 nM | 
C=CCC1(C)C(=O)C(C)(C)Nc2c1cc(-c1cccc3cc[nH]c13)c1c2OCO1 (centres unmarked) [Example 78, 6-allyl-4-(1H-indol-7-yl)-6,8,8-trimethyl-6,7,8,9-tetrahydro-[1,3]dioxolo[4,5-h]quinolin-7-one] | > 1000 nM | 
CC1(C)Nc2c(cc(-c3cccc4nccn34)c3c2OC(F)(F)O3)C(C)(C)C1=O [Example 82, 2,2-difluoro-4-(imidazo[1,2-a]pyridin-5-yl)-6,6,8,8-tetramethyl-6,7,8,9-tetrahydro-[1,3]dioxolo[4,5-h]quinolin-7-one] | > 1000 nM | 
